Here are results for 53 compounds from ChEMBL document CHEMBL1142400, “An updated steroid benchmark set and its application in the discovery of novel nanomolar ligands of sex hormone-binding globulin” (J Med Chem, 2008).

The structures appear in SMILES notation.

The assay deals with T1, Sex hormone-binding globulin (Homo sapiens, UniProt P04278).
T1 sequence (P04278 whole entry): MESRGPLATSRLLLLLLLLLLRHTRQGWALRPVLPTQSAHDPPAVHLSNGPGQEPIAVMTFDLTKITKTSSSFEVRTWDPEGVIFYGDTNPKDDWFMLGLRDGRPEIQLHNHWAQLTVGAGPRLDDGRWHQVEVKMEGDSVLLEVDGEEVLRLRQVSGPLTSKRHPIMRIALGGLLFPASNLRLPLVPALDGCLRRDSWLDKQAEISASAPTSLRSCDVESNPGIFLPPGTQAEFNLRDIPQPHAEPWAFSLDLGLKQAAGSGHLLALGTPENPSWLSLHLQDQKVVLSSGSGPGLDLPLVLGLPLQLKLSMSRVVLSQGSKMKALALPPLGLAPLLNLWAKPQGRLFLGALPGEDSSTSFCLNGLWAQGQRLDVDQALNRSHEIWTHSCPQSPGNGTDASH
Kind of assay: Displacement of [3H]5alpha dihydrotestosterone from human sex hormone binding globulin.

In turn, `C[C@]12CC[C@H]3C(=CCc4cc(O)ccc43)[C@@H]1CC[C@@H]2O` gave a Kd of 2.4 nM. In the case of `C[C@]12CC[C@@H]3c4ccc(O)cc4C=C[C@H]3[C@@H]1CC[C@@H]2O`, the affinity, expressed as Kd, was 1.74 nM. In the case of `C[C@]12CC[C@H]3[C@@H](CC=C4C[C@@H](O)CC[C@@H]43)[C@@H]1CC[C@@H]2O`, binding was put at a Kd of 0.288 nM.

For the compound `CC1(C)CC2=C3C=C[C@@]4(C)[C@@H](CC[C@]4(C)O)[C@@H]3CCC2=CC1=O`, the affinity, expressed as Kd, was 138 nM. In turn, `CC(C)(C)CC(C)(C)c1ccc(O)cc1` had a Kd of 2140 nM. `COc1cc(/C=N/CCc2ccccc2)ccc1O` showed a Kd of 589 nM. On to `CCc1cc(C(=O)Cc2ccccc2C)c(O)cc1O`, for which binding was put at a Kd of 107 nM. As to `C[C@@H]1CC2=CC(=O)CC[C@]2(C)[C@@]2(F)CC[C@]3(C)[C@@H](O)CC[C@H]3[C@H]12`, binding was characterised by a dissociation constant (Kd) of 3.09 nM. The figure for `C#C[C@]1(O)CC[C@H]2[C@@H]3CCC4=C[C@H](O)CC[C@]4(C)C3C(=C)C[C@@]21CC` (stereo partly drawn) is 21.4 nM; for `Cc1c(Cc2ccccc2)c(=O)oc2c(C)c(O)ccc12` it is 2190 nM.

As for `C#C[C@]1(O)CC[C@H]2[C@@H]3CC[C@H]4CC(=O)CC[C@]4(C)[C@H]3CC[C@@]21C`, the affinity, expressed as Kd, was 0.182 nM. Consider `C[C@]12CC[C@H]3[C@@H](CC[C@H]4CC(=O)C[C@H](CCCCCCN)[C@@]43C)[C@@H]1CC[C@@H]2O`, for which binding was characterised by a dissociation constant (Kd) of 29.5 nM.

As for `C[C@@H]1CC2=CC(=O)C=C[C@]2(C)[C@H]2CC[C@]3(C)[C@@H](O)CC[C@H]3[C@H]12`, the affinity, expressed as Kd, was 4.37 nM. Take `C[C@H]1C[C@H]2[C@@H]3CC[C@H](O)[C@@]3(C)CC[C@@H]2[C@@]2(C)CCC(=O)C=C12`: binding was characterised by a dissociation constant (Kd) of 4.37 nM.

Take `C[C@]12CC[C@H]3[C@@H](CCC4CC(=O)CC[C@@H]43)[C@@H]1CC[C@@H]2O` (stereo partly drawn): the Kd is 4.37 nM. In turn, `C[C@@H]1C=C2CC(O)CC[C@]2(C)[C@H]2CC[C@@]3(C)[C@@H](CC[C@]3(C)O)[C@H]12` (stereo partly drawn) gave a Kd of 363 nM. Then `C[C@@H]1CC2=CC(=O)CC[C@@H]2[C@H]2CC[C@@]3(C)C(=CC[C@@H]3O)[C@@H]21`, with 0.851 nM; and `C[C@@]12CCC[C@H]1[C@@H]1CCc3cc(O)ccc3[C@H]1CC2`, with 5.01 nM; and `C#C[C@]1(O)CC[C@H]2[C@H]3[C@H](C(=C)C[C@@]21CC)[C@H]1CC[C@@H](O)C[C@@H]1C[C@H]3C`, with 5.37 nM. As to `C[C@@H]1C[C@H]2C[C@@H](O)CC[C@]2(C)[C@H]2CC[C@]3(C)[C@@H](O)CC[C@H]3[C@H]12`, the Kd was 1 nM. Take `C[C@@H]1C[C@H]2CC(=O)CC[C@]2(C)[C@H]2CC[C@@]3(C)[C@@H](CC[C@]3(C)O)[C@H]12`: binding was characterised by a dissociation constant (Kd) of 0.891 nM. The compound `C[C@]12CCC(=O)C[C@@H]1CC[C@@H]1[C@@H]2[C@@H](O)C[C@@]2(C)[C@H]1CC[C@@]2(O)CCCN` showed a Kd of 11000 nM. Compound `CC1=C2CC[C@H]3[C@@H]4CC[C@H](O)[C@@]4(C)CC[C@@H]3[C@@]2(C)CCC1=O` had a Kd of 0.49 nM.

The compound `C[C@]12CC[C@@H]3c4cc(I)c(O)cc4CC[C@H]3[C@@H]1CC[C@@H]2O` showed a Kd of 0.479 nM. The compound `Cc1c(O)ccc(C(=O)Cc2ccccc2Cl)c1O` gave a Kd of 2190 nM. Compound `Oc1ccc(-c2cc3ccc(O)cc3o2)cc1` had a Kd of 832 nM.

`C[C@@H]1CC2=CC(=O)C=C[C@]2(C)[C@H]2CC[C@@]3(C)[C@@H](CC[C@]3(C)O)[C@H]12` showed a dissociation constant Kd of 2.69 nM.

The compound `C[C@@H]1CC2=CC(=O)CC[C@]2(C)[C@H]2CC[C@]3(C)[C@@H](O)CC[C@H]3[C@H]12` gave a Kd of 1.95 nM. `C[C@]1(O)CC[C@H]2[C@@H]3CCC4=CC(=O)CC[C@]4(C)[C@@]3(F)C(=O)C[C@@]21C`: the Kd is 5.89 nM.

The compound `COc1cc(C(=O)OC2CC3CCC2(C)C3(C)I)ccc1O` (stereo not drawn) showed a Kd of 407 nM. `CC[C@H](C1CCC(O)CC1)[C@@H](CC)C1CCC(O)CC1` (stereo partly drawn) showed a Kd of 28800 nM. The figure for `CC(=O)[C@@]1(O)CC[C@H]2[C@@H]3CC=C4C[C@@H](O)CC[C@]4(C)[C@H]3CC[C@@]21C` is 437 nM; for `C[C@]12CCC(=O)C[C@@H]1[C@@H](F)C[C@@H]1[C@@H]2CC[C@]2(C)[C@@H](O)CC[C@@H]12` it is 0.891 nM; for `CC[C@H](C1CCCCC1)[C@@H](CC)C1CCCCC1` it is 2450 nM. The compound `C#C[C@]1(O)CC[C@H]2[C@@H]3CC[C@H]4CC(=O)CC[C@@H]4[C@H]3C(=C)C[C@@]21CC` gave a Kd of 1.58 nM. `C[C@]12CCC3=C4CCC(=O)C=C4C=C[C@H]3[C@@H]1CC[C@@H]2O` gave a Kd of 1150 nM. `C#C[C@]1(O)CC[C@H]2[C@@H]3CCC4=C[C@@H](O)CC[C@]4(C)C3C(=C)C[C@@]21CC` (stereo partly drawn) gave a Kd of 13.2 nM. Then `CC1(O)CC[C@H]2[C@@H]3CC=C4CC(O)CC[C@]4(C)[C@H]3CC[C@@]21C` (stereo partly drawn), with 4.37 nM.

The compound `C#C[C@]1(O)CC[C@H]2[C@@H]3[C@H](C)C=C4CC(O)CC[C@]4(C)[C@H]3CC[C@@]21C` (stereo partly drawn) gave a Kd of 363 nM. Take `C#C[C@]1(O)CC[C@H]2[C@@H]3CC=C4C[C@@H](O)CC[C@]4(C)[C@H]3CC[C@@]21C`: the Kd was 1.23 nM.

As to `C[C@@H]1C[C@H]2CC(=O)CC[C@]2(C)[C@H]2CC[C@]3(C)[C@@H](O)CC[C@H]3[C@H]12`, the Kd was 0.417 nM. With `C[C@]12CC[C@H]3[C@@H](CCC4=CC(=O)CC[C@@]43C)[C@@H]1C[C@@H](O)[C@@H]2O`, the Kd was 12 nM. In turn, `C#C[C@]1(O)CC[C@H]2[C@@H]3CC[C@H]4CC(F)(F)CC[C@]4(C)[C@H]3CC[C@@]21C` had a Kd of 4.37 nM.

Regarding `C[C@@H]1CC2CC(=O)CC[C@@H]2[C@H]2CC[C@]3(C)[C@@H](O)CC[C@H]3[C@@H]21` (stereo partly drawn), the Kd was 3.47 nM. `C[C@@H]1C[C@H]2C[C@@H](O)CC[C@]2(C)[C@H]2CC[C@@]3(C)[C@@H](CC[C@]3(C)O)[C@H]12` had a Kd of 3.47 nM.

Take `O=C1C[C@@H](c2ccc(O)cc2)Oc2cc(O)cc(O)c21` (stereo in doubt; 82) [NARINGENIN]: the Kd was 28200 nM. The compound `O=C1C[C@@H](c2ccc(O)cc2)Oc2cc(O)cc(O)c21` (stereo in doubt; 90) [NARINGENIN] gave a Kd of 955 nM. `COc1cc2c(cc1O)CC[C@@H]1[C@@H]2CC[C@]2(C)[C@@H](O)CC[C@@H]12` [2-METHOXYESTRADIOL] gave a Kd of 0.832 nM.

With `CCCCCCCCCc1ccc(O)cc1` [4-NONYLPHENOL], binding was put at a Kd of 1200 nM. As to `C[C@]12CCC(=O)C=C1CC[C@@H]1[C@@H]2[C@@H](O)C[C@]2(C=O)[C@@H](C(=O)CO)CC[C@@H]12` [ALDOSTERONE], the Kd was 4790 nM.

Take `C[C@]12CC[C@@H](O)C[C@@H]1CC[C@@H]1[C@@H]2CC[C@]2(C)[C@@H](O)CC[C@@H]12` [ANDROSTANDIOL]: the Kd is 0.776 nM.

For `C[C@]12CCC(=O)C=C1CC[C@@H]1[C@@H]2CC[C@]2(C)C(=O)CC[C@@H]12` [ANDROSTENEDIONE], the Kd is 34.7 nM. The compound `C[C@]12CC[C@@H](O)C[C@@H]1CC[C@@H]1[C@@H]2CC[C@]2(C)C(=O)CC[C@@H]12` [ANDROSTERONE] gave a Kd of 70.8 nM.
